Data taken from patent publication EP2366702A1, “New oxadiazole derivatives” (Almirall, S.A., priority 2010, dated 2011).

biological target: S1P1 (Homo sapiens, UniProt P21453); experiment: 35S-GTPyS binding assay; format: biochemical; details: membranes; 10µM S1P used as 100% maximum efficacy; 90 min at room temperature
Method: The effect of the compounds was measured using a 35S-GTPyS binding assay. Briefly, membranes were incubated in a buffer containing 20 mM HEPES pH 7.4, 100 mM NaCl, 10 mM MgCl2, 10µM GDP, 50µg/ml saponin and 0.2% fatty acid-free BSA at various concentrations (0.1nM-10µM) and 0.1nM 35S-GTPyS. 10µM S1P was used as 100% maximum efficacy. The assay was incubated for 90 min at room temperature with gentle mixing, and terminated by filtrating the reaction mixture through GF/C filter plates using the Manifold Filtration System. The filters were immediately washed with sodium phosphate pH 7.4 buffers. After drying the filter plate's scintillant liquid were added to each well and 35S-GTPyS binding was measured on a Trilux Scintillation Counter.

Sequence of S1P1 (P21453 whole entry, species assumed): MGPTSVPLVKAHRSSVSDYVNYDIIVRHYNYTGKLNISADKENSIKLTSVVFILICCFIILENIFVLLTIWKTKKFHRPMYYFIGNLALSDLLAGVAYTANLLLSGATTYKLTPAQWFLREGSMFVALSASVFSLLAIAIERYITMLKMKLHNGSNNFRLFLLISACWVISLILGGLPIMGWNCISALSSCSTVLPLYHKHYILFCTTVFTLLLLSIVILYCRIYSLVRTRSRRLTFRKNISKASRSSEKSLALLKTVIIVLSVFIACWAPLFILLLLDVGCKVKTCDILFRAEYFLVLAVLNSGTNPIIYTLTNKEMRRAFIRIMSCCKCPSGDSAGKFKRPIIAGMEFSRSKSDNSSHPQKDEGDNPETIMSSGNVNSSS

Row | Compound | EC50 [nM]
1 | Cc1cc(-c2noc(-c3nn(C)c4c3CCC(C)(C)C4)n2)cc(C)c1CCNC(=O)CN [Example 2, N-1-(2-{2,6-dimethyl-4-[5-(1,6,6-trimethyl-4,5,6,7-tetrahydro-1H-indazol-3-yl)-1,2,4-oxadiazol-3-yl]phenyl}ethyl)glycinamide] | 1.99
2 | Cc1cc(-c2noc(-c3nn(C)c4c3CCC(C)(C)C4)n2)cc(C)c1CCNCCn1cncn1 [Example 6, (2-{2,6-dimethyl-4-[5-(1,6,6-trimethyl-4,5,6,7-tetrahydro-1H-indazol-3-yl)-1,2,4-oxadiazol-3-yl]phenyl}ethyl)[2-(1H-1,2,4-triazol-1-yl)ethyl]amine] | 19.2
3 | Cc1cc(-c2noc(-c3nn(C)c4c3CCC(C)(C)C4)n2)cc(C)c1CCC(C)(C)O [Example 17, 4-{2,6-dimethyl-4-[5-(1,6,6-trimethyl-4,5,6,7-tetrahydro-1H-indazol-3-yl)-1,2,4-oxadiazol-3-yl]phenyl}-2-methylbutan-2-ol] | 37.5
4 | Cc1cc(-c2noc(-c3nn(C)c4c3CCC(C)(C)C4)n2)cc(C)c1CCP(=O)(O)O [Example 21, (2-{2,6-dimethyl-4-[5-(1,6,6-trimethyl-4,5,6,7-tetrahydro-1H-indazol-3-yl)-1,2,4-oxadiazol-3-yl]phenyl}ethyl)phosphonic acid] | 3.08

More lines, now with the values ahead:

Row | EC50 [nM] | Compound
5 | 12.1 | Cc1cc(-c2noc(-c3nn(C)c4c3CCC(C)(C)C4)n2)cc(C)c1CCn1cncn1 [Example 16, 3-(3-{3,5-dimethyl-4-[2-(1H-1,2,4-triazol-1-yl)ethyl]phenyl}-1,2,4-oxadiazol-5-yl)-1,6,6-trimethyl-4,5,6,7-tetrahydro-1H-indazole]
6 | 6.37 | Cc1cc(-c2noc(-c3nn(C)c4c3CCC(C)(C)C4)n2)cc(C)c1CCn1cc(C(=O)O)cn1 [Example 22, 1-(2-{2,6-dimethyl-4-[5-(1,6,6-trimethyl-4,5,6,7-tetrahydro-1H-indazol-3-yl)-1,2,4-oxadiazol-3-yl]phenyl}ethyl)-1H-pyrazole-4-carboxylic acid]
7 | 10.3 | Cc1cc(-c2noc(-c3nn(C)c4c3CCC(C)(C)C4)n2)cc(C)c1CCn1nccc1C(=O)O [Example 24, 1-(2-{2,6-dimethyl-4-[5-(1,6,6-trimethyl-4,5,6,7-tetrahydro-1H-indazol-3-yl)-1,2,4-oxadiazol-3-yl]phenyl}ethyl)-1H-pyrazole-5-carboxylic acid]
